Measurements as given in patent publication US20240226000A9, “TRANSDERMAL PENETRANT FORMULATIONS FOR ADMINISTRATION OF MEDICAMENTS” (Dyve Biosciences, Inc., priority 2021, published 2024).
Counter-ions that a name gives are not always drawn. Like-named read-outs stand apart in the source and are kept apart here. Each block holds one molecule with its values, some of them ahead of it.

Key:
[1] = cited from earlier work
[2] = Solubility of actives in aqueous medium / percent solution
Excerpt: (§1) In this example, mice were transdernally treated with formulations of the present disclosure comprising essentially insoluble class 2 or class 4 molecules.

[3] = Pharmacokinetics study of neratinib cream formulations (topical) and oral gavage in adult mice; settings: 110 mg/kg
Description: In this example, six formulations of a topical neratinib cream was applied to adult mice and plasma pharmacokinetics (PK) values for neratinib were measured.
In these experiments, two different forms of the active neratinib were tested but blood levels of pure neratinib was assayed.
In this example, six week or older, male mice were used in the study. A region ˜2×3 cm on the backs of each mouse was shaved 24 hours before experiment. Animals were food deprived for one hour before topical administration and for four hours during the study, and with no limit of access to water. Each mouse was topically applied one formulation at a neratinib dose of 100 μL/animal. The tested topical formulations were rubbed in at the selected dose. After rubbing, the animals were monitored for 15-20 min to avoid licking of the formulations. If licking is was observed, an Elizabethan collar was put on the mouse to prevent licking off the formulation. Three animals per formulation and per time point were used. Blood samples were collected after drug administration in the following time points by cardiopuncture:
Blood samples, approximately 0.5 mL each, were collected from each animal into tubes with coagulation activators. The samples were incubated at RT for ˜40 min and centrifuged (for ˜15 minutes at 3000 xg). The serum was harvested into a single tube for each animal at each time point. The serum samples were frozen (˜−80° C.) after centrifugation and transferred to Bioanalytical Laboratory.
Analyses were performed using an assay kit and multifunctional plate reader Infinite® M1000 PRO (Tecan) according to the manufacturer's protocol. Total neratinib concentrations were calculated using a standard curve prepared according to the manufacturer's protocol from the kit.
Using the calibration curve, concentrations of neratinib in the serum samples were calculated. Pharmacokinetic analysis was performed using WinNonlin Professional 6.3 software package (Pharsight Corporation, USA). […] Statistical analysis of the concentrations was performed by descriptive statistics. The following values were calculated: Arithmetic mean (Mean); Standard deviation (SD); Standard error of the mean (SEM); Coefficient of variation (CV). For the concentration outliers detecting and excluding Grubbs statistical test was used.

in vivo = experiment: in vivo
Excerpt: as §1

[4] = table of Class 2 and Class 4 API examples
[5] = share of the active in solution, the cell beside it prints the amount in the formulation (3.5, 4.23, 3.6, 8, 15), not a dose range
[6] = table of kinase inhibitor examples
[7] = mouse, in vivo, topical or ocular
[8] = mice transdermally treated with a formulation comprising the molecule

Molecule: COC(=O)Nc1nc2ccc(C(=O)c3ccccc3)cc2[nH]1 [Mebendazole]
BCS Class [1, 4]: 2/4

Molecule: CN(Cc1cnc2nc(N)nc(N)c2n1)c1ccc(C(=O)N[C@@H](CCC(=O)O)C(=O)O)cc1 [Methotrexate]
BCS Class [1, 4]: 3/4

Molecule: CCOc1cc2ncc(C#N)c(Nc3ccc(OCc4ccccn4)c(Cl)c3)c2cc1NC(=O)/C=C/CN(C)C [Neratinib − Free Base]
% Solution (Relative Dosing) [2, 5]: <1%

Molecule: CCOc1cc2ncc(C#N)c(Nc3ccc(OCc4ccccn4)c(Cl)c3)c2cc1NC(=O)/C=C/CN(C)C [Neratinib, (E)-N-[4-[3-chloro-4-(pyridin-2-ylmethoxy)anilino]-3-cyano-7-ethoxyquinolin-6-yl]-4-(dimethylamino)but-2-enamide]
AUC(0-inf) ([3]; male, mouse, plasma, po): 7070 ng·h/mL | AUC(0-t) ([3]; male, mouse, plasma, po): 5400 ng·h/mL | Cmax ([3]; male, mouse, plasma, po): 1460 ng/mL | MRT last ([3]; male, mouse, plasma, po): 180 min | Tmax ([3]; male, mouse, plasma, po): 60 min | concentration at 0 h ([3]; male, mouse, plasma, po): 118 ng/mL | concentration at 0.5 h ([3]; male, mouse, plasma, po): 553 ng/mL | concentration at 1 h ([3]; male, mouse, plasma, po): 1460 ng/mL | concentration at 2 h ([3]; male, mouse, plasma, po): 1230 ng/mL | concentration at 4 h ([3]; male, mouse, plasma, po): 497 ng/mL | concentration at 8 h ([3]; male, mouse, plasma, po): 334 ng/mL | half-life ([3]; male, mouse, plasma, po): 180 min | kel ([3]; neratinib, mice, PO): 0.200 h⁻¹

Molecule: O=C(Nc1ccc([N+](=O)[O-])cc1Cl)c1cc(Cl)ccc1O [Niclosamide]
BCS Class [1, 4]: 2/3

Molecule: COC(=O)c1ccc2c(c1)NC(=O)/C2=C(\Nc1ccc(N(C)C(=O)CN2CCN(C)CC2)cc1)c1ccccc1 [Nintedanib]
BCS Class [1, 6]: 2/4

Molecule: C[C@@H]1[C@H](O)[C@@H](C)/C=C/C=C/CC/C=C/C=C/C=C/C=C/C(O[C@H]2O[C@H](C)[C@@H](O)[C@H](N)[C@@H]2O)CC2O[C@](O)(CC(O)C(O)CCC(O)CC(O)CC(O)CC(=O)O[C@H]1C)CC(O)C2C(=O)O (stereo partly shown) [Nystatin]
BCS Class [1, 4]: 3/4

Molecule: CN1CCCN=C1/C=C/c1cccs1 [Pyrantel]
BCS Class [1, 4]: 2/4

Molecule: CC1=C(/C=C/C(C)=C/C=C/C(C)=C/CO)C(C)(C)CCC1 [Retinol]
BCS Class [1, 4]: 2/4

AUC(0-inf) (in vivo; [7]): 9660 ng·h/mL | Cmax (in vivo; [7]): 4390 ng/mL | Tmax (in vivo; [7]): 30 min | bioavailability after transdermal delivery (in vivo; [7]): high or relatively high bioavailability | half-life (in vivo; [7]): 56.4 min | % Solution (Relative Dosing) [2]: <1% | Estimated Active % in Solution [2]: <1% | solubility in aqueous medium [2]: ≤ 1%
Molecule: CCCc1nn(C)c2c(=O)[nH]c(-c3cc(S(=O)(=O)N4CCN(C)CC4)ccc3OCC)nc12 [Sildenafil Citrate]

Molecule: CNC(=O)c1cc(Oc2ccc(NC(=O)Nc3ccc(Cl)c(C(F)(F)F)c3)cc2)ccn1 [Sorafenib]
BCS Class [1, 6]: 2/4

Molecule: CC(=O)S[C@@H]1CC2=CC(=O)CC[C@]2(C)[C@H]2CC[C@@]3(C)[C@@H](CC[C@@]34CCC(=O)O4)[C@H]12 [Spironolactone]
BCS Class [1, 4]: 2/4

Molecule: Nc1ccc(S(=O)(=O)Nc2ncccn2)cc1 [Sulfadiazine]
BCS Class [1, 4]: 2/4

Molecule: O=C(O)c1cc(/N=N/c2ccc(S(=O)(=O)Nc3ccccn3)cc2)ccc1O [Sulfasalazine]
BCS Class [1, 4]: 2/4

Molecule: COc1cc2nccc(Oc3ccc(NC(=O)Nc4cc(C)on4)c(Cl)c3)c2cc1OC [Tivozanib]
BCS Class [1, 6]: 2/4

Molecule: CSc1nc2cc(Cl)c(Oc3cccc(Cl)c3Cl)cc2[nH]1 [Triclabendazole]
BCS Class [1, 4]: 2/4

AUC(0-t) (in vivo; [7]): 3930 ng·h/mL | Cmax (in vivo; [7]): 1880 ng/mL | Tmax (in vivo; [7]): 30 min | bioavailability after transdermal delivery (in vivo; [7]): improved bioavailability | Estimated Active % in Solution [2]: <1%
Molecule: COc1ccc(-n2nc(C(N)=O)c3c2C(=O)N(c2ccc(N4CCCCC4=O)cc2)CC3)cc1 [apixaban]

bioavailability after transdermal delivery (in vivo; [7]): improved bioavailability
Molecule: C[C@H]1c2cccc(O)c2C(=O)C2=C(O)[C@]3(O)C(=O)C(C(N)=O)=C(O)[C@@H](N(C)C)[C@@H]3[C@@H](O)[C@@H]21 [doxycycline]

Molecule: CN[C@H](CC(C)C)C(=O)N[C@H]1C(=O)N[C@@H](CC(N)=O)C(=O)N[C@H]2C(=O)N[C@H]3C(=O)N[C@H](C(=O)N[C@H](C(=O)O)c4cc(O)cc(O)c4-c4cc3ccc4O)[C@H](O)c3ccc(c(Cl)c3)Oc3cc2cc(c3O[C@@H]2O[C@H](CO)[C@@H](O)[C@H](O)[C@H]2O[C@H]2C[C@](C)(N)[C@H](O)[C@H](C)O2)Oc2ccc(cc2Cl)[C@H]1O [vancomycin]
bioavailability after transdermal delivery (in vivo; [8]): improved bioavailability

Molecule: Ivermectin
BCS Class [1, 4]: 2/4

Molecule: Neratinib Maleate
bioavailability after transdermal delivery (in vivo; [8]): high or relatively high bioavailability | Estimated Active % in Solution ([2]; active in the transdermal formulation): <1% | % Solution (Relative Dosing) [2, 5]: <1%
